Values quoted from earlier work as cited in the CATMoS acute toxicity set (Mansouri et al. 2021).
“And” between values parts separate entries of the source, which are not always exact repeats. Equal entries are not always repeated.

assay: rat acute oral toxicity; settings: in vivo

| SMILES | LD50 |
| --- | --- |
| CNC(=O)ON=C1[C@@H](Cl)[C@@H]2C[C@H](C#N)[C@H]1C2 (relative stereo) | 25 mg/kg |
| C#CCCl | 165 mg/kg |
| C=CC(O)C#N (stereo not drawn) | 65 mg/kg |
| O=NN1CCCOC1 | 600 mg/kg |
| CNC(=O)ON=C1SC(=NC(C)C)SC1(C)C | 8.9 mg/kg |
| O=C(O)c1cc(O)cc(C(=O)O)c1 | 11200 mg/kg |
| CCCOC=O | 3980 mg/kg |
| C[N+](C)(C)CC(O)CC(=O)O (stereo not drawn) | 6890 mg/kg |
| CCCOc1ccc(C(CN(C)C)C(C)CC)cc1Cl (stereo not drawn) | 741 mg/kg |
| OCCC(O)Cl (stereo not drawn) | 110 mg/kg |
| FC(F)(F)c1nc2c(Cl)c(Br)c(Br)c(Br)c2[nH]1 | 5.25 mg/kg |
| C=COC(=O)C=CC | 6500 mg/kg |
| ClC1=C(Cl)[C@]2(Cl)[C@@H]3[C@@H](Cl)[C@H](Cl)[C@@H](Cl)[C@@H]3[C@@]1(Cl)C2(Cl)Cl (racemic) | 500 mg/kg |
| CO[C@H]1C=CC2=CCN3CCC4=C(CC(=O)OC4)[C@]23C1 | 510 mg/kg |
| CNC(=O)ON=C(SC)c1ccc(Cl)cc1 | 670 mg/kg |
| O=C(CF)NC(=O)Nc1ccccc1 | 25 mg/kg |
| CCOC(=O)CC(CC(=O)OCC)(OC(C)=O)C(=O)OCC | 7000 mg/kg |
| O=C(NC(=O)c1c(F)cccc1F)Nc1cc(Cl)c(Oc2ncc(C(F)(F)F)cc2Cl)c(Cl)c1 | 445 mg/kg |
| C=C[Si](OCCOC)(OCCOC)OCCOC | 2960 mg/kg |
| COC(=O)c1ccc(I)cc1S(=O)(=O)NC(=O)Nc1nc(C)nc(OC)n1 | 2680 mg/kg |
| Cc1cc(S(=O)(=O)O)c(N)cc1Cl | 12300 mg/kg |
| O=C(CF)Nc1ccc(Br)cc1 | 29 mg/kg |
| CCCCCCC(=O)OCCN1CCN(CCCN2c3ccccc3Sc3ccc(C(F)(F)F)cc32)CC1 | 230 mg/kg |
| Cc1ccc(N=NN(C)C)cc1 | 395 mg/kg |
| ClC1=C(Cl)[C@]2(Cl)[C@H]3[C@H]([C@@H]4O[C@]4(Cl)[C@@H]3Cl)[C@@]1(Cl)C2(Cl)Cl (racemic) | 457 mg/kg |

| SMILES | LD50 |
| --- | --- |
| O=C(/C=C/C=C/c1ccc2c(c1)OCO2)N1CCCCC1 | 514 mg/kg |
| COc1cc2[nH]c(C)c(CCN3CCN(c4ccccc4)CC3)c2cc1OC | 1000 mg/kg |
| CCP(c1ccccc1)c1ccccc1 | 500 mg/kg |
| CC(Br)CBr (stereo not drawn) | 741 mg/kg |
| COc1ccccc1OC | 890 mg/kg |
| OCCCS | 116 mg/kg |
| CCCCCCCC[N+](C)(CCCCCCCC)CCCCCCCC | 223 mg/kg |
| Clc1sc(Cl)c(Cl)c1Cl | 70 mg/kg |
| OCc1ccccc1 | 1230 mg/kg |
| C=CC(=O)OCC(CO)(COC(=O)C=C)COC(=O)C=C | 1830 mg/kg |
| Cc1nc2ccccc2c(=O)n1-c1ccc(Br)cc1 | 185 mg/kg |
| COc1c2occc2cc2ccc(=O)oc12 | 791 mg/kg |
| OCC(O)CCl (stereo not drawn) | 26 mg/kg |
| C1CN2CCN1CC2 | 1700 mg/kg |
| COc1ccc2c(c1)OC(C)(C)C(c1ccccc1)=C2c1ccc(OCC(O)CNC(C)C)cc1 (stereo not drawn) | 1000 mg/kg |
| Cn1c(=O)on(-c2ccc(Cl)c(Cl)c2)c1=O | 777 mg/kg |
| CCOP(=O)(O)Sc1ccc(C)cc1 | 50 mg/kg |
| FC(F)(F)c1nc2c(Br)cc(Cl)cc2[nH]1 | 7.18 mg/kg |
| CN[C@@H]1[C@H](O[C@H]2[C@H](O[C@H]3[C@H](O)[C@@H](O)[C@H](NC(=N)N)[C@@H](O)[C@@H]3NC(=N)N)O[C@@H](C)[C@]2(O)C=O)O[C@@H](CO)[C@H](O)[C@H]1O | 9000 mg/kg |
| O=C(c1ccc2c(c1)C(=O)OC2=O)c1ccc2c(c1)C(=O)OC2=O | 12800 mg/kg |
| CCCCOC(=S)S | 456 mg/kg |
| COP(=S)(OC)C(C(=O)O)c1ccccc1 (stereo not drawn) | 4500 mg/kg |
| Cc1cc(C=Cc2ccc3cc(N(C)C)ccc3[n+]2C)c(C)n1-c1ccccc1 | 161 mg/kg |
| CSc1ccc2c(c1)N(CCCN(C)C)c1ccccc1S2 | 1450 mg/kg |
| CC(=O)SCCCCCCSC(C)=O | 504 mg/kg |

| SMILES | LD50 |
| --- | --- |
| NC(=S)Nc1ccccc1Cl | 4.6 mg/kg |
| CCCC(CCC)C(C)NC(=O)CC (stereo not drawn) | 700 mg/kg |
| C=CC(=O)NCO | 474 mg/kg |
| Cc1ccc(N2C(=O)C=CC2=O)cc1N1C(=O)C=CC1=O | 2400 mg/kg |
| NNc1nncc2ccccc12 | 90 mg/kg |
| CC(C)NCC(O)c1ccc2ccccc2c1 (stereo not drawn) | 900 mg/kg |
| Cc1cccc(OC(C)C)c1N(C)C(=O)CCl | 950 mg/kg |
| CCOP(=S)(OCC)SCc1cccc([N+](=O)[O-])c1 | 250 mg/kg |
| NC(=O)C(=O)O | 21100 mg/kg |
| Cc1cc(N)ccc1S(=O)(=O)NCCO | 8900 mg/kg |
| CN(C)C(=O)NC1CCCCCCC1 | 1500 mg/kg |
| C=C(Cl)CSC(=S)N(CC)CC | 850 mg/kg |
| O=c1nc[nH]c2c1ncn2[C@@H]1O[C@H](COP(=O)(O)OP(=O)(O)O)[C@@H](O)[C@H]1O | 3790 mg/kg |
| O=C1CC[C@@]2(O)[C@H]3Cc4ccc(O)c5c4[C@@]2(CCN3CC2CC2)[C@H]1O5 | 1450 mg/kg |
| CC(C)Cc1ccc(C(C)C(=O)OCCN2CCN(c3cccc(Cl)c3)CC2)cc1 (stereo not drawn) | 3350 mg/kg |
| CC(=O)Nc1ccc(C(=O)CCl)cc1 | 2150 mg/kg |
| CN(C)N=Nc1cccnc1 | 160 mg/kg |
| Cc1ccc(OP(=O)(Oc2ccc(C)cc2)Oc2ccc(C)cc2)cc1 | 12800 mg/kg |
| N#CCCOCCCCOCCC#N | 4000 mg/kg |
| CCC(C(=O)N1CCCC1C)(c1ccccc1)c1ccccc1 (stereo not drawn) | 326 mg/kg |
| C[N+]1(CC[N+]2(C)CC3C4C=CC(CC4)C3C2)CCCC1 (stereo not drawn) | 1810 mg/kg |
| CN(C)CCCN1C(=O)c2cc([N+](=O)[O-])ccc2Oc2ccccc21 | 1690 mg/kg |
| Clc1cccc2ccccc12 | 2200 mg/kg and 1540 mg/kg |
